The source of these data is ChEMBL document CHEMBL1149735, “Stereoselective synthesis and antimalarial activity of alpha-artelinic acid from artemisinin” (J Nat Prod, 1992).

Calls of active or inactive are those of the source. The rule behind the calls is not given here.

Data set [1] deals with Plasmodium knowlesi. Nature of the data set: Antimalarial activity as cures at day 50 in Plasmodium knowlesi infected Rhesus monkey assessed at 15 mg/kg intravenous dose for 3 days. More on the design: dose 15 mg/kg. The data set is classed as functional, organism-based.
The test system of data set [2] is Plasmodium knowlesi. Description: Antimalarial activity as parasite elimination up to day 50 against Plasmodium knowlesi infected Rhesus monkey at 30 mg/kg intravenous dose over 3 days. The data set is classed as functional, organism-based. More on the design: dose 30 mg/kg.
Data set [3] relates to Plasmodium knowlesi. Nature of the data set: Antimalarial activity as parasite elimination after 24 hrs against Plasmodium knowlesi infected Rhesus monkey at 30 mg/kg intravenous dose. The data set is classed as functional, organism-based. Also noted: dose 30 mg/kg.
A short description of data set [4]: Toxicity in Swiss mouse. The data set is classed as organism-based. The following applies: in vivo.

`C[C@@H]1[C@H](OCc2ccc(C(=O)O)cc2)O[C@@H]2O[C@@]3(C)CC[C@@H]4[C@@H](C)CC[C@@H]1[C@]24OO3` [ARTELINIC ACID]: the outcome in data set [1] was inactive. Moreover, the result in data set [2] and in data set [3] was Active. Also, in data set [4], the LD50 came to 1000 mg/kg.

The term LD50 denotes the dose expected to kill half of the subjects tested.
